From US20230414715A1, “TRAIL COMPOUNDS FOR REDUCING CANCER TREAMENT SIDE EFFECTS” (BROWN UNIVERSITY, priority 2022, published 2023)
Entries after “also recorded” stand apart in the source; their conditions may differ.

Legend:
TRAIL-/- mice = assay: Survival after whole-thorax irradiation, TRAIL-/- mice; format: in vivo, mouse
Experimental: Starting one hour before irradiation, mice were treated with either 10 mg/kg of TLY012 (D&D Pharmatech) by intraperitoneal (IP) injection or 100 mg/kg of ONC201/TIC10 (Chimerix/Oncoceutics) by oral gavage (PO) or a control gavage consisting of 20% Cremophor® EL (Sigma #238470) and 70% Dulbecco's phosphate buffered saline solution (Cytiva SH30264.02) per volume via PO (n=2/gender/treatment).

C57B1/6 mice = assay: Radiation pneumonitis after whole-thorax x-ray irradiation, H&E of lung, wild-type mice; format: in vivo, mouse
Experimental: (§1) However, before embarking on the planned experiment, we decided to perform a preliminary, short-term treatment feasibility experiment to ensure some mouse survival after 20 Gy of thoracic irradiation (FIG. 1B). The preliminary experiment was performed with WT and DR5-null mice that were irradiated with 20 Gy, and this was followed by either weekly doses of TIC10/ONC201 (100 mg/kg for total of two doses) or twice a week doses of TLY012 (10 mg/kg for total of four doses) for 2 weeks.
(§2) Animal studies were carried out at Brown University facilities with approval from Brown University IACUC. C57B1/6 mice (Taconic), mice with bi-allelic loss of TRAIL Death Receptor-(DR5-/-) in a C57B1/6 background, and mice with bi-allelic loss of TRAIL (TRAIL -/-) in a C57B1/6 background were given a single whole-thorax x-ray (Philips RT250) irradiation dose of 20 Gy with shielding of other organs. 8-15-week-old male and female mice of each genotype were used. […] Treatment was continued for two weeks, where TLY012 was administered twice a week and ONC201 was administered once a week. For each genetic background, two mice received a control PO, two mice received TLY012 IP, and two mice received ONC201 PO. Mice were weighed twice a week, and 13 days post-irradiation all mice were euthanized. Organs were harvested from the mice and 600 μL of blood was collected via cardiac puncture for serum cytokine analysis. Organs were preserved in 10% formalin then embedded in paraffin and sectioned at a distance of 5 μm. […] TRAIL-/- female mice were also subjected to a survival study with a single whole-thorax radiation doses of 15 Gy or 18 Gy treated with the same regimen of TLY012 or control (n=2/radiation dose/treatment) (FIG. 3B). In order to determine the lethal dose of radiation for C57B1/6 mice, female C57B1/6 mice were treated with a single dose of whole-thorax irradiation of 25 Gy in a survival study where they were treated with either TLY012 or remained control (n=6/treatment) (FIG. 3C).

[1] = system: lung tissue in irradiated C57B1/6 mice; assay: Immunohistochemistry of irradiated lung tissue; format: in vivo, mouse
Excerpt: Paraffin embedded sections of tissue were deparaffinized in xylene and rehydrated through graded ethanol solutions to phosphate-buffered saline (PBS). Heat-induced antigen retrieval (in 0.01 M citrate buffer; pH 6.0), endogenous peroxidase blocking (3% H202), and blocking were done using a standard protocol. […] Slides were developed with diaminobenzidine substrate (Vector Laboratories SK-4100) and counterstained with hematoxylin (Richard Allen Scientific). Slides were scanned (Olympus VS200) and representative brightfield images were taken and analyzed with OlyVIA software.

TRAIL-/- female mice = assay: In vivo respiration-gated microCT imaging of lungs; parameters: species or system mouse; conditions: 15 Gy
Experimental: For μCT imaging, all mice were imaged in a SkyScan 1276 in vivo microCT scanner (Bruker, Kontich, Belgium) under isoflurane at 41 μm voxels with a 0.7° rotation step in supine position. […] Mice underwent μCT scans 13 days post irradiation. Image-based respiratory gating was used to sort images into gates based on specific time points of the breathing cycle to minimize motion artifact in the final reconstruction. For 3D reconstruction, Dataviewer version 1.5.4 (Bruker) was used to sort the CT images using the function “Listmode Scan” grouping the images in each bin where bin 0=maximum exhale and bin 3=maximum inhale (empty views <10%). Once the images were sorted, the listmode dataset was opened in NRecon software (Bruker) where the ROI undergoes 3D reconstruction. Reconstructed images were then analyzed in CTAn software (Bruker) where the volume of the lungs was calculated during max inhale and max exhale. The plugins in the custom processing page were used to create an ROI that separated the lungs from the rest of the image. 3D reconstructed images of the lung only were then opened in CTvol software (Bruker) where the color (red=69%, green=50%, blue=50%) and the opacity (7%) of the lung was changed.

serum cytokines = assay: Serum cytokine analysis (Luminex) of irradiated mice; format: in vivo, mouse; conditions: treated versus control
Experimental: as §2
All mouse serum samples were analyzed by a custom R&D systems Murine Premixed Multi- Analyte Kit (R&D Systems, Inc., Minneapolis, MN). The panel was run on a Luminex 200 Instrument (Luminex Corporation, Austin, TX) according to the manufacturer's instructions. Murine serum levels of Angiopoietin-2, BAFF/BLyS/TNFSF13B, CCL2/JE/MCP-1, CCL3/MIP-1 alpha, CCL4/MIP-1 beta, CCL5/RANTES, CCL7/MCP-3/MARC, CCL11/Eotaxin, CCL12/MCP-5, CCL20/MIP-3 alpha, CCL21/6Ckine, CCL22/MDC, Chitinase 3-like 1, CXCL1/GRO alpha/KC/CINC-1, CXCL10/IP-10/CRG-2, CXCL12/S DF- 1 alpha, Dkk-1, FGF basic/FGF2/bFGF, GDF-15, GM-CSF, Granzyme B, IFN-gamma, IGF-I/IGF-1, IL-1 alpha/IL-1F1, IL-1 beta/IL-1F2, IL-2, IL-3, IL-4, IL-6, IL-7, IL-10, IL-13, IL-16, IL-17/IL-17A, IL-27, IL-33 M-CSF, MMP-3, MMP-8, MMP-12, Prolactin, TWEAK/TNFSF12, VEGF, and VEGFR2/KDR/Flk-1 were measured. Analyte values were reported in picograms per milliliter (pg/mL). […] Latent TGF-β was activated in samples using 1 N HCl and samples were neutralized with 1.2 N NaOH/0.5 M HEPES. Samples were assayed immediately after neutralization.

DR5-/- mice = assay: Radiation pneumonitis after whole-thorax x-ray irradiation, H&E of lung, DR5-null mice; format: in vivo, mouse; conditions: 20 Gy
Experimental: as §1
Animal studies were carried out at Brown University facilities with approval from Brown University IACUC. C57B1/6 mice (Taconic), mice with bi-allelic loss of TRAIL Death Receptor-(DR5-/-) in a C57B1/6 background, and mice with bi-allelic loss of TRAIL (TRAIL -/-) in a C57B1/6 background were given a single whole-thorax x-ray (Philips RT250) irradiation dose of 20 Gy with shielding of other organs. 8-15-week-old male and female mice of each genotype were used. […] Treatment was continued for two weeks, where TLY012 was administered twice a week and ONC201 was administered once a week. For each genetic background, two mice received a control PO, two mice received TLY012 IP, and two mice received ONC201 PO. Mice were weighed twice a week, and 13 days post-irradiation all mice were euthanized. Organs were harvested from the mice and 600 μL of blood was collected via cardiac puncture for serum cytokine analysis. […]

duodenum, liver or heart = assay: H&E of duodenum, liver and heart of irradiated, treated mice; conditions: 20 Gy irradiated mice, 2 weeks treatment
Experimental: as §2, with “In order to determine the lethal dose of radiation for C57B1/6 mice, female C57B1/6 mice were treated with a single dose of whole-thorax irradiation of 25 Gy in a survival study where they were treated with either TLY012 or remained control (n=6/treatment) (FIG. 3C).” left out

[2] = irradiated rescued versus irradiated control lung tissues
[3] = normal or inflamed lung, treated versus irradiated control

For “TLY012: N-terminal PEGylated recombinant human TRAIL; PEGylated trimeric TRAIL formulation”, the protection from lethality (TRAIL-/- mice; female TRAIL-/- mice, 15 Gy, FIG. 3B) was “protection from lethality”, the survival (TRAIL-/- mice; female TRAIL-/- mice, 18 Gy whole-thorax irradiation, FIG. 3B) was 3 weeks and the “survival / rescue from lethality” value (TRAIL-/- mice; male TRAIL-/- mice, 18 Gy chest irradiation, 10 mg/kg, FIG. 3A) was “increased survival; also recorded: rescue from lethality”. The protection from pneumonitis (C57B1/6 mice; WT mice, 20 Gy thoracic irradiation, preliminary experiment, 2 weeks treatment, versus irradiated control, FIG. 1C) was “qualitative evidence of protection from pneumonitis”, the “rescue from radiation-induced pneumonitis” value (C57B1/6 mice; irradiated C57B1/6 mice, FIG. 2) was “could rescue mice from radiation-induced pneumonitis” and the NFkB [1, 2] was “no differences”. For the same substance, the proliferation [1, 2] was “no differences”, the “DNA double strand break marker gamma-H2AX” value [1, 3] was “no difference” and the “T-cell infiltration (CD3-epsilon)” value [1, 3] was “no difference”. For the same substance, the collagen in lungs ([1]; rescued lungs versus irradiated control) was “less collagen”, the “3D reconstruction of lungs: clarity and visible airway space” value (TRAIL-/- female mice; same opacity conditions, FIG. 7B) was “overall clearer and have more visible airway space” and the “lung expansion upon inhalation (μCT)” value (TRAIL-/- female mice; twice weekly treatment, two weeks post irradiation, versus 15 Gy control, FIG. 7A) was “expand more upon inhalation”. For the same substance, the “CCL3/MIP-lalpha serum level” value (serum cytokines) was “increased”, the CXCL1 serum level (serum cytokines) was “increased” and the “FGF basic serum level” value (serum cytokines) was “increase”. The GDF-15 serum level (serum cytokines) was “increased”, the IL6 serum level (serum cytokines) was “increased” and the MMP-8 serum level (serum cytokines) was “increased”. For the same substance, the “rescue from radiation pneumonitis” value (DR5-/- mice; DR5-/- mice, FIG. 2A, B) was “did not observe rescue”, the protection from pneumonitis (DR5-/- mice; DR5-null mice, preliminary experiment, 2 weeks treatment, FIG. 1C) was “lack of protection” and the “toxicities in duodenum, liver or heart” value (duodenum, liver or heart) was “No obvious toxicities”.
